In patent US5691373A, “Nonpeptide endothelin antagonists I” (Warner-Lambert Company, priority 1995, dated 1997):
Read-outs that look alike come from different tables or passages of the source.

What was measured:
[1] = target: T1, ETB (Rattus norvegicus, UniProt P21451); conditions: for inhibition at 10 µM: read-out: ERBA-B % inhibition
T1 sequence (P21451 27-442): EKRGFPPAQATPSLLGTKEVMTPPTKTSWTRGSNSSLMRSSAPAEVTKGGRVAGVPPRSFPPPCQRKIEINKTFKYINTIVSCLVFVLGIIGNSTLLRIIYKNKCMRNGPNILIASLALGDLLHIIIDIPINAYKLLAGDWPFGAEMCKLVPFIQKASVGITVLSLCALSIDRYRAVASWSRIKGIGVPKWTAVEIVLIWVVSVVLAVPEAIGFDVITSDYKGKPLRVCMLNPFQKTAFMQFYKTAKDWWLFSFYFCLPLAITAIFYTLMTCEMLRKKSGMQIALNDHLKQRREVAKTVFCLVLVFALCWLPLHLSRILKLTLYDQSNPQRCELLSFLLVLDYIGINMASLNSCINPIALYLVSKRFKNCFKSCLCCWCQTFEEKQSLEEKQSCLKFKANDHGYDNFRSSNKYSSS
Protocol: The tissue is made up of 20 mM tris(hydroxymethyl)aminomethane hydrochloride (Trizma) buffer, 2 mM ethylenediaminetetra acetate, 100 μM phenylmethylsulfonyl fluoride.
First, thaw one aliquot of frozen rat cerebellar membranes (2 mg protein in 0.5 mL). Next, add 0.5 mL membrane aliquot to 4.5 mL cold tissue buffer, polytron at 7,500 revolutions per minute for 10 seconds. Finally, dilute tissue suspension 1/100 (0.1 mL suspension+9.9 mL tissue buffer), polytron again, and place ice.
Mix in 150 μL of tissue to each tube, vortex briefly, then tap to force all liquids to bottom (total assay volume=250 μL). Then place the tubes in a 37° C. water bath for 2 hours.
Add 2.5 mL cold wash buffer (50 mM Trizma buffer) to each tube, filter, and then wash tube with additional 2.5 mL wash buffer and add to filter. Finally, wash filters with an additional 2.5 mL of cold wash buffer.
Count filters for radioactivity in gamma counter.

[2] = target: T2, ETA (Oryctolagus cuniculus, UniProt A5A8K3); conditions: for inhibition at 10 µM: read-out: ERBA-A % inhibition
T2 sequence (A5A8K3 21-427): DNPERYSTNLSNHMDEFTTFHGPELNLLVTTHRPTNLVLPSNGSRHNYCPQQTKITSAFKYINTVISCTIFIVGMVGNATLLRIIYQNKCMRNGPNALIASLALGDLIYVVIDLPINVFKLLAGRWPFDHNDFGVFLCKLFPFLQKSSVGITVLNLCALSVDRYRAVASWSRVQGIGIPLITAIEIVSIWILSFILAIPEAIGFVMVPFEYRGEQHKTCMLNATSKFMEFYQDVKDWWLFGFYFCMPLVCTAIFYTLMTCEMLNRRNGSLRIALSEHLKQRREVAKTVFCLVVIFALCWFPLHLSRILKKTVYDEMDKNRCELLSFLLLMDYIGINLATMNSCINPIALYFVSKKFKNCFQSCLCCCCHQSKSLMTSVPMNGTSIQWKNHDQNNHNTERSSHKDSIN
Protocol: The cells used were rabbit renal artery vascular smooth muscle cells grown in a 48-well dish (1 cm^2) (confluent cells).
The growth media was Dulbecco's Modified Eagles/Ham's F12 which contained 10% fetal bovine serum and antibiotics (penicillin/streptomycin/fungizone).
Second, remove the assay buffers, place the dish on ice, and add 150 μL of cold assay buffer described above to each well. […] Next, place dish in a 37° C., water bath for about 2 hours and gently agitate the dish every 15 minutes. Discard the radioactive incubation mixture in the sink and wash wells 3 times with 1 mL of cold phosphate buffered saline.

[3] = target: T3, human ETB receptor (Homo sapiens, UniProt P24530); experiment: ERBA-B: [125I]-ET-1 binding, recombinant human ETB receptor expressed in CHO-K1 cells; conditions: human cloned ETB receptor, read-out: ERBA-B IC50, human cloned receptor data
T3 construct: expressed in transfected cells; host or cells: CHO-K1 cells, pRc-CMW (so in the source) expression vector, electroporation; membranes used
T3 sequence (P24530 27-442): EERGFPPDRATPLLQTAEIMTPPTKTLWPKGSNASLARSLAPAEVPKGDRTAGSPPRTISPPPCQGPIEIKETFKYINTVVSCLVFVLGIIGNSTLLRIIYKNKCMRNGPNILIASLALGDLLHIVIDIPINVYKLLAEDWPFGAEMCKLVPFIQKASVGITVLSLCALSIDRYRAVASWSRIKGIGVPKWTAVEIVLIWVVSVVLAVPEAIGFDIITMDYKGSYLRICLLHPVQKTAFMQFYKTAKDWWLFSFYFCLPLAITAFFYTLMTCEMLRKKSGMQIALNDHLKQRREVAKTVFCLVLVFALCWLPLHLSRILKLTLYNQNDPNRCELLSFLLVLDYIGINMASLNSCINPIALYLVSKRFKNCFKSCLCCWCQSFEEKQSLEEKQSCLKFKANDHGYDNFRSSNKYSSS

[4] = read-out: ERBA-B IC50, [125I]-ET-1, rat cerebellar membranes
[5] = ERBA-A IC50, [125I]-ET-1, rabbit renal artery vascular smooth muscle cells

IC50 [1] | IC50 [2, 5] | SMILES | other results
– | – | CC(C)c1ccc(C2=C(Cc3ccccc3)C(O)(c3ccc(Cl)cc3)OC2=O)cc1 (racemic) [Example 4, 2(5H)-Furanone, 5-(4-chlorophenyl)-5-hydroxy-3-[4-(1-methylethyl)phenyl]-4-(phenylmethyl)- , (±)-] | inhibition at 10 µM [1]: 52%; inhibition at 10 µM [2]: 34%
– | – | CC(C)c1ccc(C2=C(Cc3cccc4ccccc34)C(O)(c3ccc(Cl)cc3)OC2=O)cc1 (racemic) [Example 40, 2(5H)-Furanone, 5-(4-chlorophenyl)-5-hydroxy-3-[4-(1-methylethyl)phenyl]-4-(1-naphthalenylmethyl)-, (±)-] | inhibition at 10 µM [1]: 22%
9 µM | – | CC(C)c1ccc(C2=C(Cc3ccc4ccccc4c3)C(O)(c3ccc(Cl)cc3)OC2=O)cc1 (racemic) [Example 41, 2(5H)-Furanone, 5-(4-chlorophenyl)-5-hydroxy-3-[4-(1-methylethyl)phenyl]-4-(2-naphthalenylmethyl)-, (±)-] | inhibition at 10 µM [2]: 37%
– | – | CC(C)c1ccc(C2=C(Cc3ccc4c(c3)OCO4)C(O)(c3ccc(Cl)cc3)OC2=O)cc1 (racemic) [Example 42, 2(5H)-Furanone, 4-(1,3-benzodioxol-5-ylmethyl)-5-(4-chlorophenyl)-5-hydroxy-3-[4-(1-methylethyl)phenyl]-, (±)-] | inhibition at 10 µM [1]: 54%; inhibition at 10 µM [2]: 36%
– | – | O=C1OC(O)(c2ccc(Cl)cc2)C(Cc2ccc3ccccc3c2)=C1c1ccc2c(c1)OCO2 (racemic) [Example 43, 2(5H)-Furanone, 3-(1,3-benzodioxol-5-yl)-5-(4-chlorophenyl)-5-hydroxy-4-(2-naphthalenylmethyl)-, (±)-] | IC50 [1, 4]: 7 µM; IC50 ([2]; read-out: ERBA-A IC50, [125I]-ET-1, rabbit renal artery vascular smooth muscle cells): 2.7 µM
– | 2.8 µM | O=C1OC(O)(c2ccc(Cl)cc2)C(Cc2cccc3ccccc23)=C1c1ccc2c(c1)OCO2 (racemic) [Example 44, 2(5H)-Furanone) 3-(1,3-benzodioxol-5-yl)-5-(4-chlorophenyl)-5-hydroxy-4-(1-naphthalenylmethyl)-, (±)-] | inhibition at 10 µM [1]: 35%
9.1 µM | 1.5 µM | CC(C)c1ccc(CC2=C(c3ccc4c(c3)OCO4)C(=O)OC2(O)c2ccc(Cl)cc2)cc1 (racemic) [Example 45, 2(5H)-Furanone, 3-(1,3-benzodioxol-5-yl)-5-(4-chlorophenyl)-5-hydroxy-4-[[4-(1-methylethyl)phenyl]methyl]-, (35)-] | –
6.4 µM | 3.6 µM | O=C1OC(O)(c2ccc(Cl)cc2)C(Cc2ccc3c(c2)OCO3)=C1c1ccc2c(c1)OCO2 (racemic) [Example 46, 2(5H)-Furanone, 3-(1,3-benzodioxol-5-yl)-4-(1,3-benzodioxol-5-ylmethyl)-5-(4-chlorophenyl)-5-hydroxy-, (±)-] | –
18 µM | – | CN(C)c1ccc(C2=C(Cc3ccc4c(c3)OCO4)C(O)(c3ccc(Cl)cc3)OC2=O)cc1 (racemic) [Example 54, 2(5H)-Furanone, 4-(1,3-benzodioxol-5-ylmethyl)-5-(4-chlorophenyl)-3-[4-(dimethylamino)phenyl]-5-hydroxy-, (±)-] | –
21 µM | – | CN(C)c1ccc(CC2=C(c3ccc(N(C)C)cc3)C(=O)OC2(O)c2ccc(Cl)cc2)cc1 (racemic) [Example 55, 2(5H)-Furanone, 5-(4-chlorophenyl)-3-[4-(dimethylamino)phenyl]-4-[[4-(dimethylamino)phenyl]methyl]-5-hydroxy-, (±)-] | –
11 µM | 11 µM | O=C1OC(O)(c2ccc(Cl)cc2)C(Cc2ccccc2)=C1c1ccc(Cl)c(Cl)c1 (racemic) [Example 61, 2(5H)-Furanone, 5-(4-chlorophenyl)-3-(3,4-dichlorophenyl)-5-hydroxy-4-(phenylmethyl)-, (±)-] | –
6 µM | 9.3 µM | COc1ccc(C2=C(Cc3ccc4c(c3)OCO4)C(O)(c3ccc(Cl)cc3)OC2=O)cc1OC (racemic) [Example 65, 2(5H)-Furanone, 4-(1,3-benzodioxol-5-ylmethy)-5-(4-chlorophenyl)-3-(3,4-dimethoxyphenyl)-5-hydroxy, (±)-] | –
7.4 µM | 2.4 µM | Cn1cc(CC2=C(c3ccc4c(c3)OCO4)C(=O)OC2(O)c2ccc(Cl)cc2)c2ccccc21 (racemic) [Example 66, 2 (5H)-Furanone, 3-(1,3-benzodioxol-5-yl)-5-(4-chlorophenyl)-5-hydroxy-4-[(1-methyl-1H-indol-3-yl)methyl], (±)-] | –
6.3 µM | 7.1 µM | COc1ccc(C2=C(Cc3ccccc3)C(O)(c3ccc(Cl)cc3)OC2=O)cc1OC (racemic) [Example 67, 2(5H)-Furanone, 5-(4-chlorophenyl)-3-(3,4-dimethoxyphenyl)-5-hydroxy-4-(phenylmethyl)-, (±)-] | –
4.2 µM | – | COc1ccc(C2=C(Cc3ccc(N(C)C)cc3)C(O)(c3ccc(Cl)cc3)OC2=O)cc1OC (racemic) [Example 71, 2(5H)-Furanone, 5-(4-Chlorophenyl)-3-(3,4-dimethoxyphenyl)-4-[[4-(dimethylamino)phenyl]methyl]-5-hydroxy-, (±)-] | –
26 µM | – | O=C1OC(O)(c2ccccc2)C(Cc2ccccc2)=C1c1ccc2c(c1)OCO2 (centres unmarked) [Example 24, 2(5H)-Furanone, 3-(1,3-benzodioxol-5-yl)-5-hydroxy-5-phenyl-4-(phenylmethyl)-] | –
4.2 µM | – | O=C1OC(O)(c2ccc(Cl)cc2)C(Cc2ccccc2)=C1c1ccc2c(c1)OCO2 (centres unmarked) [Example 39, 2(5H)-Furanone, 3-(1,3-benzodioxol-5-yl)-5-(4-chlorophenyl)-5-hydroxy-4-(phenylmehyl)-] | –
– | – | COc1ccc(CC2=C(c3ccc4c(c3)OCO4)C(=O)OC2(O)c2ccc(OC)cc2)cc1 (centres unmarked) [Example 77, 3-Benzo[1,3]dioxol-5-yl-5-hydroxy-4-(4-methoxybenzyl)-5-(4-methoxyphenyl)-5 H-furan-2-one] | IC50 [1, 4]: 0.22 µM
– | – | COc1ccc(C2(O)OC(=O)C(c3ccc4c(c3)OCO4)=C2Cc2ccc(Cl)cc2)cc1 (centres unmarked) [Example 81, 3-Benzo[1,3]dioxol-5-yl-4-(4-chlorobenzyl)-5-hydroxy-5-(4-methoxophenyl)-5H -furan-2-one] | IC50 [1, 4]: 0.72 µM
– | 0.02 µM | COC(=O)C1CCCC(CC2=C(c3ccc4c(c3)OCO4)C(=O)OC2(O)c2ccc(OC)cc2)C1 (centres unmarked) [Example 399, 3-[4-Benzo[1,3]dioxol-5-yl-2-hydroxy-2-(4-methoxyphenyl)-5-oxo-2,5-dihydro-furan-3-ylmethyl]-cyclohexanecarboxylic acid methyl ester] | IC50 [3]: 1.1 µM
– | 0.039 µM | COc1ccc(C2(O)OC(=O)C(c3ccc4c(c3)OCO4)=C2CC2CC2)cc1 (centres unmarked) [Example 400, 3-Benzo[1,3]dioxol-5-yl-4-cyclopropylmethyl-5-hydroxy-5-(4-methoxy-phenyl)-5H-furan-2-one] | IC50 [3]: > 2.5 µM
– | 0.25 µM | COc1ccc(C2(O)OC(=O)C(c3ccc4c(c3)OCO4)=C2CC2CCCC(C(=O)O)C2)cc1 (centres unmarked) [Example 403, 3-[4-Benzo[1,3]dioxol-5-yl-2-hydroxy-2-(4-methoxyphenyl)-5-oxo-2,5-dihydro-furan-3-ylmethyl]-cyclohexanecarboxylic acid] | IC50 [3]: 3 µM
– | 0.058 µM | COc1ccc(C2(O)OC(=O)C(c3ccc4c(c3)OCO4)=C2Cc2ccc(C(C)C)cc2)cc1 (centres unmarked) [Example 404, 3-Benzo[1,3]dioxol-5-yl-5-hydroxy-4-(4-isopropylbenzyl)-5-(4-methoxy-phenyl)-5H-furan-2-one] | IC50 [3]: > 2.5 µM
